± gives the expanded uncertainty stated by the source.
Settings: Liquid, Ebulliometric method (Recirculating still)

| SMILES | vapor or sublimation pressure (159.61 K) [kPa] | vapor or sublimation pressure (161.58 K) [kPa] | vapor or sublimation pressure (169.38 K) [kPa] | vapor or sublimation pressure (173.9 K) [kPa] | vapor or sublimation pressure (178.93 K) [kPa] |
| --- | --- | --- | --- | --- | --- |
| FC(F)(F)F [tetrafluoromethane] | 243 ± 8 | 269 ± 9 | 431 ± 14 | 517 ± 17 | 651 ± 21 |
| C [methane] | 1567 ± 50 | 1695 ± 54 | 2276 ± 73 | 2672 ± 86 | 3170 ± 100 |
